Patent US4603217A, “Ester substituted alkyl-2-(2,6-dichloroanilino)phenyl acetates” (priority 1983, dated 1986)
Where two headings read alike, the source gives them in different places.

Columns and labels:
[1] = test system: thiopental-induced sleep; assay: potentiating effect on thiopental-induced sleep in mice; assay type: in vivo, male ddY mice; details: for potentiating effect on thiopental-induced sleep relative to IM: mouse, in vivo
Method: (§1) Effect on central nervous system, which is another side effect of IM, was investigated according to the potentiating effect on thiopental-induced sleep in mice as follows: Male ddY mice weighing 20 to 24 g were subjected to fasting for 15 hrs. […] At 30 mins after the administration, thiopental sodium was injected intravenously to each of the mice in an amount of 35 mg/l kg body weight, and then, the sleeping time was observed. When the sleeping time of the mice to which the Test Compound was administered was longer than 2 times that of the control to which only Tween-80 was administered, the given Test Compound was judged to be effective on thiopental-induced sleep potentiating effect.

[2] = as above; assay type: in vivo, male ddY mice; details: mouse, in vivo, po
Method: as §1

[3] = Rate of hydrolysis in rat plasma; assay type: in vitro ADME; details: in 1 ml of plasma rat (37° C., incubation for 1 hr)
Method: **in 1 ml of plasma rat (37° C., incubation for 1 hr)

[4] = in vivo; details: rat, po
Method: Gastrointestinal ulcer formation action, which is a principal side effect of an acid anti-inflammatory drug, was investigated according to the method of Okabe et al [cf. […] The compounds of the present invention, IM, DF and acemethacin were suspended in 5% Tween-80 solution and administered orally 1 ml/100 g body weight to the rats, respectively. At 6 hrs after the administration, the state of glandstomach was observed by means of a dissecting microscope whether the ulcer having a diameter more than 1 mm was generated or not.

[5] = test system: ultraviolet erythema; assay: inhibition action for ultraviolet erythema; assay type: in vivo, male Hartley guinea pigs; parameters: 2 hs after the irradiation, Average ± standard error / 3 hs after the irradiation, Average ± standard error / 5 hs after the irradiation, Average ± standard error: scale not given here; 2 hs after the irradiation, Rate for inhibition / 3 hs after the irradiation, Rate for inhibition / 5 hs after the irradiation, Rate for inhibition: unit not given here; details: guinea pigs; for 2 hs after the irradiation, Average ± standard error / 2 hs after the irradiation, Rate for inhibition: 2 hs after irradiation; for 3 hs after the irradiation, Average ± standard error / 3 hs after the irradiation, Rate for inhibition: 3 hs after irradiation; for 5 hs after the irradiation, Average ± standard error / 5 hs after the irradiation, Rate for inhibition: 5 hs after irradiation; for duration of the pharmacological effect: ultraviolet erythema, oral
Method: With respect to Compounds 1 to 3, 15 and 21 which are especially useful as an anti-inflammatory drug, IM and DF, inhibition action for ultraviolet erythema was investigated according to the method of Adames et al [cf. Nature, London, 181, 773 (1958)] using guinea pigs as follows: Male Hartley guinea pigs weighing 250 to 350 g were shaved at their sides the day before and two hrs before the ultraviolet irradiation. To the guinea pigs were administered orally Compounds 1 to 3, 15 and 21, IM and DF in amounts as described in Table 2, respectively. To the control group was administered orally only Tween-80. At 1 hr after the time of administration, the guinea pigs were irradiated at their shaved sides by ultraviolet beam for 40 seconds.
The reaction of the ultraviolet erythema was evaluated at 2 hrs, 3 hrs and 5 hrs after irradiation according to the method of Winder et al [cf. Arch. Int. Pharmacodyn., 116, 261 (1958)]. […] Compounds 1 and 2 show a duration of the pharmacological effect over 5 hrs, contrary to that IM has a duration of 2 hrs.

[6] = test system: carrageenan edema; assay: inhibition test of carrageenan edema employing a foot-pad edema method; assay type: in vivo, male Wister rats; details: for ED50: Rattus norvegicus, read-out: ED50 for inhibition for carrageenan edema; for anti-inflammatory activity compared with IM: relative to IM
Description: Anti-inflammatory action was investigated according to the method of Winter et al [cf. Pro. Soc. Exp. Biol. Med., 111, 544 (1962)] by the inhibition test of carrageenan edema employing a foot-pad edema method using carrageenan as an irritating agent and male Wister rats weighing 130 to 170 g.

[7] = in vivo; details: mouse, po
[8] = male Wister rats, foot-pad edema

Row | SMILES | potentiating effect on thiopental-induced sleep relative to IM [1] | ED50 [2] [mg/kg] | metabolised at 1 h [3] [%] | TD50 at 6 h [4] [mg/kg] | 2 hs after the irradiation, Average ± standard error ([5]; 3 mg/kg orally) | 2 hs after the irradiation, Rate for inhibition ([5]; 3 mg/kg orally) | 3 hs after the irradiation, Average ± standard error ([5]; 3 mg/kg orally) | 3 hs after the irradiation, Rate for inhibition ([5]; 3 mg/kg orally) | 5 hs after the irradiation, Average ± standard error ([5]; 3 mg/kg orally) | 5 hs after the irradiation, Rate for inhibition ([5]; 3 mg/kg orally) | 2 hs after the irradiation, Average ± standard error ([5]; 10 mg/kg orally) | 2 hs after the irradiation, Rate for inhibition ([5]; 10 mg/kg orally) | 3 hs after the irradiation, Average ± standard error ([5]; 10 mg/kg orally) | 3 hs after the irradiation, Rate for inhibition ([5]; 10 mg/kg orally) | 5 hs after the irradiation, Average ± standard error ([5]; 10 mg/kg orally) | 5 hs after the irradiation, Rate for inhibition ([5]; 10 mg/kg orally) | duration of the pharmacological effect [5] | ED50 [6, 8] [mg/kg] | anti-inflammatory activity compared with IM [6] | LD50 [7] [mg/kg] | other results
1 | C/C=C/C(=O)OCOC(=O)Cc1c(C)n(C(=O)c2ccc(Cl)cc2)c2ccc(OC)cc12 [Compound 1, Crotonoyloxymethyl[1-(p-chlorobenzoyl)-5-methoxy-2-methyl-3-indolyl]acetate] | 1/4.3 | 455 | 88.9 | 15 | 1.50 ± 0.337 | 43.8 | 2.08 ± 0.193 | 26.5 | 1.92 ± 0.193 | 32.2 | 1.17 ± 0.322 | 56.2 | 1.58 ± 0.288 | 44.2 | 1.92 ± 0.229 | 32.2 | over 5 hrs | 6 | equal anti-inflammatory activity to IM | 105 | 
2 | COc1ccc2c(c1)c(CC(=O)OCOC(=O)C=C(C)C)c(C)n2C(=O)c1ccc(Cl)cc1 [Compound 2, 3,3-Dimethylacryloyloxymethyl[1-(p-chlorobenzoyl)-5-methoxy-2-methyl-3-indolyl]acetate] |  |  | 78 | 20 | 1.83 ± 0.297 | 31.5 | 1.83 ± 0.207 | 35.3 | 2.0 ± 0.174 | 29.3 | 0.83 ± 0.241 | 68.9 | 0.83 ± 0.241 | 70.7 | 1.0 ± 0.369 | 64.7 | over 5 hrs | 6 | equal anti-inflammatory activity to IM | 67 | 
3 | C/C=C/C(=O)OC(C)OC(=O)Cc1c(C)n(C(=O)c2ccc(Cl)cc2)c2ccc(OC)cc12 (stereo not drawn) [Compound 10, 1-(Crotonoyloxy)ethyl[1-(p-chlorobenzoyl)-5-methoxy-2-methyl-3-indolyl]acetate] | 1/2.5 | 261 | 88.2 | 20 |  |  |  |  |  |  |  |  |  |  |  |  |  | 7 |  | 65 | 
4 | COc1ccc2c(c1)c(CC(=O)OCCOC(C)=O)c(C)n2C(=O)c1ccc(Cl)cc1 [Compound 3, 2-(Acetoxy)ethyl[1-(p-chlorobenzoyl)-5-methoxy-2-methyl-3-indolyl]acetate] | 1/5.7 | 600 | 97.3 | 15 | 0.5 ± 0.224 | 81.3 | 2.5 ± 0.224 | 11.7 | 2.83 ± 0.167 | 0 | 0.67 ± 0.333 | 74.9 | 2.3 ± 0.211 | 18.7 | 2.50 ± 0.224 | 11.7 |  | 6 |  | 65 | 
5 | COc1ccc2c(c1)c(CC(=O)O)c(C)n2C(=O)c1ccc(Cl)cc1 [IM, indomethacin, reference compound] |  | 205 |  |  | 2.17 ± 0.307 | 18.7 | 2.5 ± 0.224 | 11.7 | 2.83 ± 0.167 | 0 | 1.33 ± 0.217 | 50.2 | 2.83 ± 0.167 | 0 | 3.0 ± 0 | 0 | 2 hrs |  |  | 31.5 | TD50 at 6 h ([4]; in vivo): 8 mg/kg; ED50 [6]: 5.5 mg/kg
6 | O=C(O)Cc1ccccc1Nc1c(Cl)cccc1Cl [DF, diclofenac, reference compound] |  |  |  |  | 1.17 ± 0.307 | 56.2 | 2.17 ± 0.401 | 23.3 | 2.67 ± 0.211 | 5.7 | 1.17 ± 0.307 | 56.2 | 2.50 ± 0.342 | 11.7 | 2.83 ± 0.167 | 0 |  |  |  |  | potentiating effect on thiopental-induced sleep (in words) ([1]; mice, oral): did not show the potentiating effect; ED50 [6]: 15 mg/kg
